Several values for one entry are separate records, joined by “and”; a condition that tells them apart may be missing. Equal values may be shown once.
How the values were obtained:
[1] = test system: LU99 (lung, giant cell carcinoma; MTAP-Deleted); experiment: In vitro cell viability assay (CellTiter-Glo, 9 days), LU99; type: cell-based; settings: Homo sapiens, Lu-99, 216 h, 9-day treatment
Method: Some Compounds of the Disclosure were tested in Calu-6 (Vendor: ATCC; Cat #HTB-56; Description: lung, adenocarcinoma), LU99 (Vendor: JCRB; Cat #JCRB0080; Description: lung, giant cell carcinoma), SW780 (Vendor: ATCC; Cat #CRL-2169; Description: bladder, urothelial carcinoma), and BxPC-3 (Vendor: ATCC; Cat #CRL-1687; Description: pancreas, adenocarcinoma) cellular viability assays according to the general protocol. Seeded cells into 96-well plate and incubated overnight. Seeded an additional 10 wells per cell line in an additional 96-well plate for assessing Time Zero luminescence and incubated overnight. To treatment plates, added compounds into each well using Tecan D300e dispenser (nine three-fold dilutions starting at […]) and incubated for 9 days. Time Zero (no compound treatment, luminescence assessed on day 1) and 9-day treatment (luminescence assessed on day 10) plates were assessed using the same CellTiter-Glo® substrate protocol. Thawed CellTiter-Glo® Buffer and lyophilized CellTiter-Glo® substrate and equilibrated to room temperature prior to use. Transferred 100 ml CellTiter-Glo® Buffer into amber bottle containing CellTiter-Glo® substrate to reconstitute the lyophilized enzyme/substrate mixture. For Time Zero and 9-day treatment plates, removed all plating media. Added 100 μl fresh media/well. Added 100 μl CellTiter-Glo® Reagent per well. Mixed contents for 10 min on an orbital shaker to lyse cells. Recorded luminescence with Perkin Elmer Envision 2105 machine. Analyzed the data with GraphPad software.

[2] = Hepatocyte stability assay, cynomolgus monkey; type: in vitro ADME
Method: BioreclamationIVT (Baltimore, MD) provided the cryopreserved hepatocytes, hepatocyte thawing (HT) medium, and Krebs-Henseleit buffer (KHB) medium. The stock solution concentration was 1 M in DMSO and was then diluted further in acetonitrile/water (1:1 v/v). All other chemicals were purchased from Sigma-Aldrich (St. Louis, MO) or Thermo Fisher Scientific (Waltham, MA).
The quench solution used to stop reactions in the hepatocyte incubations was comprised of 100% (v/v) acetonitrile. Internal Standard/Quench (IS/Q) solution used to stop reactions with the positive control also contained 200 nM Labetalol.
Metabolic Stability in Cryopreserved Hepatocytes: Test compounds, or the positive control metabolic substrate, was incubated in suspensions of cryopreserved hepatocytes at a final concentration of 1 μM. Vials containing cryopreserved hepatocytes were removed from liquid nitrogen and immediately immersed in a 37° C. water bath. The vials were swirled gently until the contents had thawed. They were then immediately emptied into 48 mL of pre-warmed thawing medium in a 50 mL conical tube. Cells remaining in the vial were re-suspended with 1.0 mL of pre-warmed thawing medium and added to the conical tube. The tube was capped and then gently inverted several times to re-suspend the hepatocytes. The cell suspension was centrifuged at 500×g for 10 minutes at room temperature and the supernatant discarded. The cell pellet was loosened by gently swirling the centrifuge tube. Non-supplemented KHB medium was added to obtain the appropriate target cell density. The viabilities of all cell preparations were ≥85%, assessed by Trypan blue dye exclusion.
For incubations, aliquots of hepatocyte suspension (250 μL containing a cell concentration of 2×10^6 cells/mL) were added to 250 μL of 2 μM substrate (test compound or positive control) in supplemented KHB in duplicate wells in a 24-well plate. Final concentration in the incubations were 1×10^6 cells/mL and 1 μM substrate. A cell-free control incubation (KHB only) was also included. The incubations were carried out with gentle shaking in a 37° C. incubator under a humid atmosphere of 95% air/5% CO2 (v/v). Aliquots (100 μL) were removed after 0, 1, 3, and 6 hours and added to 200 μL quenching solution. The samples were then placed on a shaker for 10 min followed by centrifugation at 3000×g for 20 min. The supernatant was transferred to a new plate and diluted with 100 μL of water to reduce the organic content and then placed on a shaker for 10 mins. Samples were injected and analyzed with methods described below.
Liquid Chromatography: Quantification of positive control and test compound was performed by analyte/internal standard peak area ratios (PAR) measured on a Thermo Scientific™ Q Exactive™ Hybrid Quadrupole-Orbitrap Mass Spectrometer MS/MS with an electrospray interface operating in positive ion mode. The mass spectrometer was coupled to a Dionex Ultimate® 3000 HPLC system. Samples (10 μL aliquots) were injected with a Leap Technologies HTC PAL autosampler. For positive control, the column used was a Thermo Scientific™ Hypersil GOLD™ HPLC column ([…], 50×2.1 mm). Mobile phase A consisted of 95% (v/v) water, 5% (v/v) acetonitrile, and contained 0.1% (v/v) formic acid (FA). Mobile phase B consisted of 95% (v/v) acetonitrile, 5% (v/v) water, and contained 0.1% (v/v) FA. Elution was achieved, at a flow rate of 0.5 mL/min, by a series of linear gradients: initial condition was 5% B at 0 min, isocratic for 20 seconds; then linear gradient to 95% B over 90 seconds, followed by isocratic for 60 seconds at 95% B, and re-equilibrated to initial conditions over 70 seconds.
Metabolic stabilities of positive control and test compound were determined by measuring the rates of disappearance of the parent with time by determining the % of parent remaining at time t (Ct) {Obach 1997}.
Data (% of parent remaining) were plotted on a semi-log scale and fitted using an exponential fit: […]

[3] = PK data (IV/PO) in Sprague-Dawley rat; type: in vivo; settings: for half-life / clearance / Vd / bioavailability: Sprague-Dawley, rat, in vivo; for half-life / clearance / Vd: iv; for clearance: read-out: Observed CL (converted); for Vd: read-out: Vss; for bioavailability: po
[4] = PK data (IV/PO) in Beagle dog; settings: in vivo; for clearance: read-out: Observed CL (converted); for Vd: read-out: Vss; for bioavailability: PO 0.5 mg/Kg

SMILES	GI50 [1] [nM]	Predicted Hepatocyte CL [2]	half-life ([3]; 0.33 mg/kg, IV 0.33 mg/Kg) [h]	clearance ([3]; 0.33 mg/kg, IV 0.33 mg/Kg) [mL/min/kg]	Vd ([3]; 0.33 mg/kg, IV 0.33 mg/Kg) [L/kg]	also measured
Cc1ncc2c(N)nc3cnc(C(=O)N4CCC[C@@H]5Oc6cc(OC(F)(F)F)ccc6[C@@H]54)cc3n12 [Ff-340, (4-amino-1-methylimidazo[1,5-a]pyrido[3,4-e]pyrazin-8-yl)((4aS,9bS)-7-(trifluoromethoxy)-3,4,4a,9b-tetrahydrobenzofuro[3,2-b]pyridin-1(2H)-yl)methanone]	17	3.3 mL/min/kg	5.3	8.83	3.2	
C[C@H]1CN(C(=O)c2cc3c(cc2F)nc(N)c2cncn23)[C@H]2c3ccc(C(F)(F)F)cc3C[C@H]2O1 (single isomer, unassigned) [Ff-81]	19	2.5 mL/min/kg				half-life ([3]; 1 mg/kg, IV 1 mg/Kg): 4.7 h; clearance ([3]; 1 mg/kg, IV 1 mg/Kg): 4 mL/min/kg; Vd ([3]; 1 mg/kg, IV 1 mg/Kg): 1.65 L/kg; half-life ([4]; IV 0.5 mg/Kg): 7.9 h; clearance ([4]; IV 0.5 mg/Kg): 4.33 mL/min/kg; bioavailability [4]: 134%
Nc1nc2cnc(C(=O)N3CCC[C@@H]4Oc5cc(C(F)(F)F)ccc5[C@@H]43)cc2n2cncc12 [Ff-110, (4-aminoimidazo[1,5-a]pyrido[3,4-e]pyrazin-8-yl)((4aS,9bS)-7-(trifluoromethyl)-3,4,4a,9b-tetrahydrobenzofuro[3,2-b]pyridin-1(2H)-yl)methanone]	7					
Nc1nc2cc(F)c(C(=O)N3CCC[C@@H]4Oc5cc(C(F)(F)F)ccc5[C@@H]43)cc2n2cncc12 [Ff-104, (4-amino-7-fluoroimidazo[1,5-a]quinoxalin-8-yl)((4aS,9bS)-7-(trifluoromethyl)-3,4,4a,9b-tetrahydrobenzofuro[3,2-b]pyridin-1(2H)-yl)methanone]	4	4.83 mL/min/kg and 4.67 mL/min/kg	3.7			T1/2 ([3]; IV 0.33 mg/Kg, 0.33 mg/kg): 3.77 h; % F ([3]; PO 1.66 mg/Kg, 1.66 mg/kg): 67% and 98%; half-life ([4]; IV 0.25 mg/Kg): 3.9 h; clearance ([4]; IV 0.25 mg/Kg): 6.5 mL/min/kg; Vd ([4]; IV 0.25 mg/Kg): 1.78 L/kg; half-life ([4]; IV 0.5 mg/Kg): 8.7 h; clearance ([4]; IV 0.5 mg/Kg): 3.17 mL/min/kg; Vd ([4]; IV 0.5 mg/Kg): 2 L/kg; bioavailability [4]: 68%
Nc1nc2cnc(C(=O)N3CC4(CC4)C[C@@H]4Oc5cc(C(F)(F)F)ccc5[C@@H]43)cc2n2cncc12 [Ff-648, (4-aminoimidazo[1,5-a]pyrido[3,4-e]pyrazin-8-yl)((4aS,9bS)-7-(trifluoromethyl)-4a,9b-dihydro-2H-spiro[benzofuro[3,2-b]pyridine-3,1′-cyclopropan]-1(4H)-yl)methanone]	9					

More lines, main results first:

GI50 [1] [nM]	Predicted Hepatocyte CL [2]	half-life ([3]; 0.33 mg/kg, IV 0.33 mg/Kg) [h]	clearance ([3]; 0.33 mg/kg, IV 0.33 mg/Kg) [mL/min/kg]	Vd ([3]; 0.33 mg/kg, IV 0.33 mg/Kg) [L/kg]	SMILES	also measured
10	4.17 mL/min/kg	6	3.5	1.73	Nc1nc2cnc(C(=O)N3CCC[C@@H]4Oc5cc(OC(F)(F)F)cc(F)c5[C@@H]43)cc2n2cncc12 (single isomer, unassigned) [Fg-55]	bioavailability ([3]; 1.66 mg/kg, PO 1.66 mg/Kg): 99%; half-life ([4]; IV 0.25 mg/Kg): 6 h; clearance ([4]; IV 0.25 mg/Kg): 4.33 mL/min/kg; Vd ([4]; IV 0.25 mg/Kg): 1.8 L/kg
13	5.67 mL/min/kg				Nc1nc2cnc(C(=O)N3CCC[C@@H]4Oc5cc(OC(F)(F)F)ccc5[C@@H]43)cc2n2cncc12 [Ff-341, (4-aminoimidazo[1,5-a]pyrido[3,4-e]pyrazin-8-yl)((4aS,9bS)-7-(trifluoromethoxy)-3,4,4a,9b-tetrahydrobenzofuro[3,2-b]pyridin-1(2H)-yl)methanone]	half-life ([3]; 0.25 mg/kg, IV 0.25 mg/Kg): 4.6 h; clearance ([3]; 0.25 mg/kg, IV 0.25 mg/Kg): 3.5 mL/min/kg; Vd ([3]; 0.25 mg/kg, IV 0.25 mg/Kg): 1.45 L/kg; bioavailability ([3]; 1.25 mg/kg, PO 1.25 mg/Kg): 99%
8	4.67 mL/min/kg	5.9	2.5	1.29	Nc1nc2ccc(C(=O)N3CCC[C@@H]4Oc5cc(C(F)(F)F)ccc5[C@@H]43)cc2n2cncc12 [Ff-111, (4-aminoimidazo[1,5-a]quinoxalin-8-yl)((4aS,9bS)-7-(trifluoromethyl)-3,4,4a,9b-tetrahydrobenzofuro[3,2-b]pyridin-1(2H)-yl)methanone]	
6	3 mL/min/kg	4.6	7.33	2.45	Nc1nc2cnc(C(=O)N3CCC[C@@H]4Oc5cc(C(F)(F)F)cc(F)c5[C@@H]43)cc2n2cncc12 (single isomer, unassigned) [Fg-53]	bioavailability ([3]; 1.66 mg/kg, PO 1.66 mg/Kg): 120%; half-life ([4]; IV 0.25 mg/Kg): 3.8 h; clearance ([4]; IV 0.25 mg/Kg): 6.33 mL/min/kg; Vd ([4]; IV 0.25 mg/Kg): 1.97 L/kg; bioavailability [4]: 73%
	15.3 mL/min/kg	3.1	8.17	1.72	Cc1ncn2c1c(N)nc1cnc(C(=O)N3CCC[C@@H]4Oc5cc(C(F)(F)F)ccc5[C@@H]43)cc12 [Ff-499, (4-amino-3-methylimidazo[1,5-a]pyrido[3,4-e]pyrazin-8-yl)((4aS,9bS)-7-(trifluoromethyl)-3,4,4a,9b-tetrahydrobenzofuro[3,2-b]pyridin-1(2H)-yl)methanone]	
11					C[C@@H]1CN(C(=O)c2cc3c(cc2F)nc(N)c2cncn23)[C@H]2c3ccc(OC(F)(F)F)cc3C[C@H]2O1 (single isomer, unassigned) [Ff-183]	
